Data on four compounds can be found in US10617692B2, “Pyrrolopyrimidine comprising cyclopentyl substituent” (CENTAURUS BIOPHARMA CO., LTD., priority 2016, dated 2020).

In one data set the target is JAK2 kinase (Homo sapiens (Human), UniProt O60674). Put plainly: Assay for enzymatic activity (IC50), HTRF kinase assay. The data set is classed as biochemical. The conditions noted are these: ATP at Km, 120 min at 23° C. How it is done:
A testing platform for kinase activity of JAK2 was established based on Homogeneous Time-Resolved Fluorescence (HTRF) assay, and the activities of the compounds were tested using the platform. The compounds were subjected to three-fold gradient dilutions with 100% DMSO with a starting concentration of 1 mM (11 dilutions in total). 4 μL of each dilution was added to 96 μL of reaction buffer (50 mM HEPES, pH 7.4, 10 mM MgCl2, 1 mM EGTA, 0.01% Tween-20, 0.005% BAS, 2 mM DTT) and mixed homogeneously. […] The mixture was mixed homogeneously by centrifugation. […] The plate was incubated in the incubator for 1 hr, and then the fluorescence values were read on Envision (available from PerkinElmer). The excitation wavelength was 320 nm, and the emission wavelengths for detection were 665 nm and 620 nm. The enzymatic activity was represented by a ratio of the two readout at the two emission wavelengths. The enzymatic activity for each compound was tested at 11 concentrations, and IC50 values of the compounds were obtained by calculating the data using GraFit6.0 software (Erithacus Software)
(In general: In TR-FRET formats the signal depends on donor and acceptor labels being close together.)

Data set [1] in a line: Plasma protein binding assay (Rapid Equilibrium Dialysis), determination of free moiety. The format is in vitro ADME. The conditions noted are these: equilibrium dialysis 5 hours in human plasma at 37° C.; compounds II, III, IV at 10 μM, compound I at 1 μM and 10 μM. On the procedure:
Protein binding to the tested compounds was determined by equilibrium dialysis using a Rapid Equilibrium Dialysis (RED) Device system. The dialysis was performed for 5 hours in human plasma at 37° C. The compound II, the compound III, and the compound IV were incubated at 10 μM, and the compound I was incubated at 1 μM and 10 μM. The concentrations of the compounds in plasma and a buffer solution after dialysis were determined through LC-MS/MS analysis. The free moiety is defined as a ratio of the concentration in the buffer solution to the concentration in the plasma.
On the technique in general: In equilibrium dialysis only unbound substance equilibrates across the membrane.

Data set [2] is described as follows: Human liver microsomal stability test, determination of inherent clearance. The data set is classed as in vitro ADME. The conditions noted are these: 37° C.; for half-life at 1 μM: both sexes, 1 μM compound, human liver microsomes 0.4 mg/mL protein, 1.25 mM NADPH, 1 hour, read-out: Human liver microsome T1/2 (converted); for Human inherent CL: calculated from declination slope of compound concentration in human liver microsomes, 1 μM. How it is done:
1 μM of the tested compound was incubated for 1 hour together with human liver microsomes of mixed genders (0.4 mg/mL protein) in the presence of 1.25 mM NADPH at 37° C. to determine the inherent clearance. The disappearance of the tested compound was monitored by LC-MS/MS at 0, 10, 20, 30, 45, and 60 minute. By using the standard method reported in literatures, the declination slope of the concentration of the compound was used to calculate the inherent clearance of human.

Bounds are passed on as bounds.

The IC50 is the concentration at which inhibition is half-maximal.

JAK2 kinase, sequence (O60674 whole entry): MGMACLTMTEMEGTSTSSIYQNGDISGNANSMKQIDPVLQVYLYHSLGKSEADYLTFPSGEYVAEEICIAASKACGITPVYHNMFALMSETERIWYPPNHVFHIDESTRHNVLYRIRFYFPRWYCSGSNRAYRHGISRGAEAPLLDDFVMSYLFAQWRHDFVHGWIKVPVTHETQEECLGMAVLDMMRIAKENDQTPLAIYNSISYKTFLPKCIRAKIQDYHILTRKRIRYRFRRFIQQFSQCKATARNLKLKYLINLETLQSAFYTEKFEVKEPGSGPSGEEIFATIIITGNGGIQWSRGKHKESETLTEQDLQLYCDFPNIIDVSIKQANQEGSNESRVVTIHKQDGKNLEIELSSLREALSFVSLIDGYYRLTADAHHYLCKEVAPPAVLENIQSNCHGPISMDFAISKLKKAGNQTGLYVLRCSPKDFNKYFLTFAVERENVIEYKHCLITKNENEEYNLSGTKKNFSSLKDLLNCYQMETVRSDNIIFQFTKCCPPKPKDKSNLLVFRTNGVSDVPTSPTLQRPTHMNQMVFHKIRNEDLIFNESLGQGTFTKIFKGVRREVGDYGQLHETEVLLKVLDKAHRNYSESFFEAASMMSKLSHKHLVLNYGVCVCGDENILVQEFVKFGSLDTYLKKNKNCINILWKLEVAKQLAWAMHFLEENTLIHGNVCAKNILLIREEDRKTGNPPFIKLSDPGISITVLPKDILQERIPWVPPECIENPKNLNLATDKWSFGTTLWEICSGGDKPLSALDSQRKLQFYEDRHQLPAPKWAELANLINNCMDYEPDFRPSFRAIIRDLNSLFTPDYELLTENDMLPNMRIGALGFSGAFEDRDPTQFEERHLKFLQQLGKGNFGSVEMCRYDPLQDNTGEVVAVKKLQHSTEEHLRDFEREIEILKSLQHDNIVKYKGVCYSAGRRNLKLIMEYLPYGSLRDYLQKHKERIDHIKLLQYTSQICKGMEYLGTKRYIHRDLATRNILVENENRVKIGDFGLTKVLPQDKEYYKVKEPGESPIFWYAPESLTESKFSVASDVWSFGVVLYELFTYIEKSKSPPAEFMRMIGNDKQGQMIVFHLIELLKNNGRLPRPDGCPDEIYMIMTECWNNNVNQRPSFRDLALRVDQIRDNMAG

On JAK2 kinase, `N#CCC(C1CCCC1O)n1cc(-c2ncnc3[nH]ccc23)c(N)n1` (stereo not shown) [Compound II, 3-[3-amino-4-(7H-pyrrolo[2,3-d]pyrimidin-4-yl)-1H-pyrazol-1-yl]-3-(2-hydroxylcyclopentyl)propionitrile] had a 50% inhibitory concentration (IC50) below 10 nM. In addition, in data set [1], the “Unbound moiety (% human plasma)” value was determined as 28.8%. Besides, in data set [2], the half-life at 1 μM is above 240 min and the “Human inherent CL” value is reported as below 0.31 L/h/kg.

`N#CCC(C1CCC(=O)C1)n1cc(-c2ncnc3[nH]ccc23)c(N)n1` (stereo not shown) [Compound III, 3-[3-amino-4-(7H-pyrrolo[2,3-d]pyrimidin-4-yl)-1H-pyrazol-1-yl]-3-(3-oxocyclopentyl)propionitrile] yielded an IC50 against JAK2 kinase below 10 nM. Besides, the “Unbound moiety (% human plasma)” value in data set [1] was 30.4%. In data set [2], the half-life at 1 μM is above 240 min and the “Human inherent CL” value was below 0.31 L/h/kg.

With `N#CCC(C1CCCC1=O)n1cc(-c2ncnc3[nH]ccc23)c(N)n1` (stereo not shown) [Compound IV, 3-[3-amino-4-(7H-pyrrolo[2,3-d]pyrimidin-4-yl)-1H-pyrazol-1-yl]-3-(2-oxocyclopentyl)propionitrile], the concentration for half-maximal inhibition (IC50) against JAK2 kinase is below 30 nM. In addition, the “Unbound moiety (% human plasma)” value in data set [1] was determined as 24.3%. In addition, in data set [2], the half-life at 1 μM is above 240 min and the “Human inherent CL” value was below 0.31 L/h/kg.

In the case of `N#CC[C@H](C1CCCC1)n1cc(-c2ncnc3[nH]ccc23)c(N)n1` [Compound I^a, (3R)-3-[3-amino-4-(7H-pyrrolo[2,3-d]pyrimidin-4-yl)-1H-pyrazol-1-yl]-3-cyclopentylpropionitrile], in data set [2], the half-life at 1 μM was 166 min.
